These results are taken from patent US4760201A (Exxon Research & Engineering Co., priority 1986, dated 1988).

Values joined by “and” are separate entries in the source; they are usually repeats but may differ in a detail not shown here. Identical values can stand only once. Like-named read-outs stand apart in the source and are kept apart here.

How the values of series [1] were obtained:
The liquids thus passed to the extraction unit were preheated each to a temperature of 60° C. The reciprocating plate column was provided with a hot water heating jacket maintained at 60° C. […] The liquids thereby accumulated were each analyzed by gas chromatography and nuclear magnetic resonance spectroscopy (NMR) for component identification.

Series [2] can be described thus: Comparative runs: partitioning of SBOH and water into neodecanoic acid from aqueous sec-butanol free of sulfuric acid.
Protocol: (§1) In a series of runs, separate portions of the acid/alcohol feedstreams were contacted with the indicated amount of octanoic acid for extraction of sec-butyl alcohol (SBA) therefrom using the indicated contacting temperatures, employing a 60 ml. separatory funnel, with agitation, and employing 3 hours of setting time. The weight percent sec-butyl alcohol in the light phase (i.e., the upper layer comprising the octanoic acid layer) was then analyzed.
Series [3] in a line: Partitioning of alcohol into neodecanoic acid from sulfuric acid/alcohol feedstreams (Examples 14-21). The note with it: AS 60%, 60° C.
A short description of series [4]: Batch extraction of sec-butyl alcohol (SBA) from acid/alcohol feedstream by aliphatic acids; SBA in light phase. Particulars: AS 56.7%, ES 0.5. It is filed as physicochemical. From the text: Thereafter, the thus-formed acid/alcohol […] contacted with the selected amount of a carboxylic acid solvent of this invention, and the results thereby obtained are reported in the associated tables below.

Series [5] is described as follows: Effect of solvent/feed ratio on selectivity of extraction (H2O/SBA in upper layer). The note with it: 25° C., AS 56.7%, ES 0.5.
Protocol: as §1

`CCC(C)OC(C)CC` (stereo not drawn) [SBE, secondary butyl ether]: the “Overall Partition Coefficients, Wt. Fract. (concentration in light phase / in heavy phase)” value in series [1] was determined as 81.2.

In the case of `CCC(C)O` (stereo not drawn) [SBOH, sec-butyl alcohol], the “Overall Partition Coefficients, Wt. Fract. (concentration in light phase / in heavy phase)” value in series [1] (Table 1, residence time 3.52 hours, solvent-to-feed 2.04:1, E.S. 1, A.S. 55%, 60° C.) is reported as 1.26; in series [1] (Table 2, residence time 3.62, solvent-to-feed 2.098:1, E.S. 1, A.S. 55%, 60° C.) it was 0.83; in series [1] (Table 3, residence time 3.66 hours, solvent-to-feed 2.043:1, E.S. 1, A.S. 55%, 60° C.), 1.15; in series [1] (Table 4, residence time 3.66 hrs, solvent-to-feed 2.11:1, solvent feed temp. 30° C., E.S. 1, A.S. 55%, 60° C.), 4.51; in series [1] (Table 5, residence time 3.37 hrs, solvent-to-feed 1.23:1, E.S. 1, A.S. 55%, 60° C.) it was “.627”; in series [1] (Table 6, residence time 3.60 hrs, solvent-to-feed 2.06:1, E.S. 1, A.S. 60%, 60° C.), 0.340. Moreover, the “Overall Partition Coefficients, Wt. Fract. (concentration in light phase / in heavy phase)” value in series [1] (Table 7, residence time 3.77 hrs, solvent-to-feed 1.38:1, E.S. 1, A.S. 60 wt. %, 60° C.) is recorded as 0.267. The “Overall Partition Coeff. SBOH” value came out at 4.1 in series [2] (Comparative Example I, 25° C., start SBOH 47.8 wt %); 2.2 in series [2] (Comparative Example II, 25° C., start SBOH 7.3 wt %); 4.0 in series [2] (Comparative Example III, 25° C., start SBOH 63.9 wt %); 2.2 in series [2] (Comparative Example IV, 25° C., start SBOH 13.9 wt %); 6.0 in series [2] (Comparative Example IX, 60° C., start SBOH 28.3 wt %); 6.0 in series [2] (Comparative Example V, 60° C., start SBOH 45.3 wt %). Also, the “Overall Partition Coeff. SBOH” value in series [2] (Comparative Example VI, 60° C., start SBOH 7.4 wt %) came out at 4.4; in series [2] (Comparative Example VII, 60° C., start SBOH 61.7 wt %) it was 6.4; in series [2] (Comparative Example VIII, 60° C., start SBOH 13.5 wt %), 4.5; in series [3] (Example 14, ES 0.2, NDA/SBOH 15.6) it was 0.3; in series [3] (Example 15, ES 0.2, NDA/SBOH 3.9) it was 0.35; in series [3] (Example 16, ES 0.2, NDA/SBOH 7.9) it was 0.33. Moreover, the “Overall Partition Coeff. SBOH” value in series [3] (Example 17, ES 0.2, NDA/SBOH 23.2) was 0.31; in series [3] (Example 18, ES 0.2, NDA/SBOH 4.7), 1.35; in series [3] (Example 19, ES 1.0, NDA/SBOH 1.3), 0.25; in series [3] (Example 20, ES 1.0, NDA/SBOH 2.6) it was 0.24; in series [3] (Example 21, ES 1.0, NDA/SBOH 7.9), 0.34.

For `O` [Water, water], in series [1], the “Overall Partition Coefficients, Wt. Fract. (concentration in light phase / in heavy phase)” value is listed as 0.012.

Consider `CC(C)(C)CCC(=O)O` [neoheptanoic acid], for which the “SBA in Light Phase” value in series [4] (Table 9, 25 °C, vol:vol 1.0:1) stood at 5.04 wt. %; in series [4] (Table 9, 60 °C, vol:vol 1.0:1), 7.82 wt. %. The “selectivity of extraction” value in series [5] is on record as “high selectivity for alcohol extraction”. In addition, the “wt:wt. ratio H2O/SBA In Upper Layer” value is 0.099 wt:wt in series [5] (solvent/feed 0.4 (v/v)), 0.054 wt:wt in series [5] (solvent/feed 1.0 (v/v)), 0.045 wt:wt in series [5] (solvent/feed 1.5 (v/v)) and 0.067 wt:wt in series [5] (solvent/feed 2.0 (v/v)).

Consider `CCCCCCCC(=O)O` [octanoic acid], for which the “SBA in Light Phase” value in series [4] (Run 8-1, 60 °C, v:v solvent:feed 1.0) is reported as 9.91 wt. %; in series [4] (Run 8-2, 60 °C, v:v solvent:feed 2.0), 7.20 wt. %; in series [4] (Run 8-3, 25 °C, v:v solvent:feed 0.2) it was 7.38 wt. %; in series [4] (Run 8-4, 25 °C, v:v solvent:feed 0.4), 7.57 wt. %; in series [4] (Run 8-5, 25 °C, v:v solvent:feed 1.0), 6.15 wt. %; in series [4] (Run 8-6, 25 °C, v:v solvent:feed 1.5), 5.37 wt. %. In addition, the “SBA in Light Phase” value in series [4] (Run 8-7, 25 °C, v:v solvent:feed 2.0) was found to be 4.54 wt. %; in series [4] (Table 9, 25 °C, vol:vol 1.0:1) it was 6.15 wt. %; in series [4] (Table 9, 60 °C, vol:vol 1.0:1), 9.91 wt. %. The “selectivity of extraction” value in series [5] is “increasing amounts of water being removed”. The “wt:wt. ratio H2O/SBA In Upper Layer” value in series [5] (solvent/feed 0.2 (v/v)) is 0.066 wt:wt and 0.079 wt:wt; in series [5] (solvent/feed 0.4 (v/v)), 0.055 wt:wt; in series [5] (solvent/feed 1.0 (v/v)), 0.067 wt:wt; in series [5] (solvent/feed 2.0 (v/v)), 0.101 wt:wt.

As to butene, the “Overall Partition Coefficients, Wt. Fract. (concentration in light phase / in heavy phase)” value in series [1] is over 2000.
